Legend:
Type in all cases: cell-based
P. Mirabilis NCTC 11938 = assay: Fluorescent signal intensity of stained bacteria (microscope, ImageJ)
Description: (§1) Firstly, all different bacterial strains were grown overnight in LB at 37° C. and 200 rpm. The mid-exponential phase cultures of bacterial strains were then diluted to a concentration of 10^5 cells·mL^−1 in LB. SYBR Green I, SYTO 13/9 and DiSC3(5) dyes were prepared by diluting them from their stocks.
(§2) The three dyes (SYBR Green I, SYTO 13/9 and DiSC3(5)) were then added in the final concentrations of 3 μM—DiSC3(5), 3 μM—SYTO 13/9 and 10× (diluted from the stock 10,000×)—SYBR Green I to the different bacterial strains and the strains incubated […] at 37° C. for 10 minutes in the dark.
(§3) The bacterial strains were then put on a haemocytometer and visualised under a microscope with fluorescent filters corresponding to individual dyes. Images were taken for all the bacterial strains at the same intensity of the incident laser light and 10-15 images were taken for each of the bacterial strains.
(§4) The images were then analysed on ImageJ software by first converting the coloured images to monochromatic images, then selecting an area with cells and analysing the plot profile. The intensity of the peaks and background from the image was then recorded.
(§5) A similar protocol to Example 1 was followed, with the addition of […] of FM 4-64.

[1] = tested on: Enterococcus faecium NCTCT 7171; assay: as above
Description: as §1, §2, §3, §4, §5

S. Aureus NCTC 8532 = assay: as above
Description: as §1, §2, §3, §4, §5

[2] = tested on: Klebsiella pneumoniae NCTC 9633; assay: as above
Description: as §1, §2, §3, §4, §5

E. Coli SEC 31 = assay: as above
Description: as §1, §2, §3, §4, §5

P. Aeruginosa NCTC 10332 = assay: as above
Description: as §1, §2, §3, §4, §5

[3] = tested on: Staphylococcus saprophyticus; assay: Qualitative dye staining on agarose pads (EVOS M7000); design: key to Relative fluorescent intensity: Very high: If the cells looked twice as big in the fluorescent channel, it was marked as having “very high” relative fluorescent intensity; High: if the cells looked bigger in the fluorescent channel, it was marked as having “high” relative fluorescent intensity; Medium: If the cells looked almost the same size in the fluorescent channel and the bright field, it was marked as having “medium” relative fluorescent intensity; Low: If the cells looked smaller in the fluorescent channel as compared to the brightfield but still the whole cell was visible, it was marked as having “low” relative fluorescent intensity; Negligible: If only a few traces of a cell was visible in the fluorescent channel, it was marked as having “negligible” relative fluorescent intensity; conditions: DiSC3(5) 3 μM, SYBR Green I 10×, SYTO 13 3 μM, FM4-64 15 μM
[4] = Table 1, 3 μM DiSC3(5), 3 μM SYTO 13/9, 10× SYBR Green I, 37° C. for 10 minutes, background subtracted
[5] = Table 3, DiSC3(5) 3 uM, SYBR Green 10x, SYTO 13/9 3 uM, FM 4-64 15 uM
[6] = Table 6 thresholds, Staphylococcus saprophyticus
[7] = Table 7 commercial strain S. saprophyticus NCTC 13634
[8] = Table 8 sample Staphylococcus saprophyticus (047)
[9] = Table 8 sample Staphylococcus saprophyticus (048)
[10] = Table 8 sample Staphylococcus saprophyticus (049)

## CCCN1C(=CC=CC=Cc2sc3ccccc3[n+]2CCC)Sc2ccccc21.[I-] [DiSC3(5), 3,3′-Dipropylthiadicarbocyanine Iodide]
P. Mirabilis NCTC 11938; [4]
  fluorescent signal intensity value, Average: 88.50
P. Mirabilis NCTC 11938; [5]
  fluorescent signal intensity value, Average: 88.50
[1]; [4]
  fluorescent signal intensity value, Average: 142.28
[1]; [5]
  fluorescent signal intensity value, Average: 142.28
S. Aureus NCTC 8532; [4]
  fluorescent signal intensity value, Average: 184.80
S. Aureus NCTC 8532; [5]
  fluorescent signal intensity value, Average: 184.80
[2]; [4]
  fluorescent signal intensity value, Average: 16.70
[2]; [5]
  fluorescent signal intensity value, Average: 16.70
E. Coli SEC 31; [4]
  fluorescent signal intensity value, Average: 62.66
E. Coli SEC 31; [5]
  fluorescent signal intensity value, Average: 62.66
P. Aeruginosa NCTC 10332; [4]
  fluorescent signal intensity value, Average: 0.00
P. Aeruginosa NCTC 10332; [5]
  fluorescent signal intensity value, Average: 0.00
[3]; [6]
  Percentage of cells stained: Almost all
  Relative fluorescent intensity: high and High
[3]; [7]
  Percentage of cells stained: Almost all
  Relative fluorescent intensity: High
[3]; [8]
  Percentage of cells stained: Almost all
  Relative fluorescent intensity: High
[3]; [9]
  Percentage of cells stained: Almost all
  Relative fluorescent intensity: High
[3]; [10]
  Percentage of cells stained: Almost all
  Relative fluorescent intensity: High

## CCN(CC)c1ccc(C=CC=CC=Cc2cc[n+](CCC[N+](CC)(CC)CC)cc2)cc1.[Br-].[Br-] [FM 4-64, N-(3-Triethylammoniumpropyl)-4-(6-(4-(Diethylamino) Phenyl) Hexatrienyl) Pyridinium Dibromide]
P. Mirabilis NCTC 11938; [5]
  fluorescent signal intensity value, Average: 0.00
[1]; [5]
  fluorescent signal intensity value, Average: 25.00
S. Aureus NCTC 8532; [5]
  fluorescent signal intensity value, Average: 89.00
[2]; [5]
  fluorescent signal intensity value, Average: 30.00
E. Coli SEC 31; [5]
  fluorescent signal intensity value, Average: 56.50
P. Aeruginosa NCTC 10332; [5]
  fluorescent signal intensity value, Average: 10.00
[3]; [6]
  Percentage of cells stained: Almost all
  Relative fluorescent intensity: High
[3]; [7]
  Percentage of cells stained: Almost all
  Relative fluorescent intensity: High
[3]; [8]
  Percentage of cells stained: Almost all
  Relative fluorescent intensity: High
[3]; [9]
  Percentage of cells stained: Almost all
  Relative fluorescent intensity: High
[3]; [10]
  Percentage of cells stained: Almost all
  Relative fluorescent intensity: High

## CCCN(CCCN(C)C)c1cc(/C=C2/Sc3ccccc3N2C)c2ccccc2[n+]1-c1ccccc1 [SYBR Green I, N′,N′-dimethyl-N-[4-[(E)-(3-methyl-1,3-benzothiazol-2-ylidene)methyl]-1-phenylquinolin-1-ium-2-yl]-N-propylpropane-1,3-diamine]
P. Mirabilis NCTC 11938; [4]
  fluorescent signal intensity value, Average: 109.85
P. Mirabilis NCTC 11938; [5]
  fluorescent signal intensity value, Average: 109.85
[1]; [4]
  fluorescent signal intensity value, Average: 162.27
[1]; [5]
  fluorescent signal intensity value, Average: 162.27
S. Aureus NCTC 8532; [4]
  fluorescent signal intensity value, Average: 196.52
S. Aureus NCTC 8532; [5]
  fluorescent signal intensity value, Average: 196.52
[2]; [4]
  fluorescent signal intensity value, Average: 21.87
[2]; [5]
  fluorescent signal intensity value, Average: 21.87
E. Coli SEC 31; [4]
  fluorescent signal intensity value, Average: 104.53
E. Coli SEC 31; [5]
  fluorescent signal intensity value, Average: 104.53
P. Aeruginosa NCTC 10332; [4]
  fluorescent signal intensity value, Average: 123.67
P. Aeruginosa NCTC 10332; [5]
  fluorescent signal intensity value, Average: 123.67
[3]; [6]
  Percentage of cells stained: Almost all
  Relative fluorescent intensity: High
[3]; [7]
  Percentage of cells stained: Almost all
  Relative fluorescent intensity: High
[3]; [8]
  Percentage of cells stained: Almost all
  Relative fluorescent intensity: High
[3]; [9]
  Percentage of cells stained: Almost all
  Relative fluorescent intensity: High
[3]; [10]
  Percentage of cells stained: Almost all
  Relative fluorescent intensity: High

Source: US20250052744A1, “Dyes and Uses Thereof” (The University of Liverpool, priority 2021, published 2025)
